The text below walks through data of patent US11395824B2, “5-HT2C receptor agonists and compositions and methods of use” (Arena Pharmaceuticals, Inc., priority 2015, dated 2022).

Molecules are shown by their SMILES. Where two headings read alike, the source gives them in different places.

For data set [1] the following is noted: reports that led to withdrawal by the FDA in 1998; cited from earlier work.
Data set [2] has as its target T1, 5-HT2B receptor (Homo sapiens, UniProt P41595). The data set can be described thus: IP accumulation assay. It counts as cell-based. The conditions noted are these: [3H]inositol phosphates, read-out: IP Accumulation EC50 (nM) 2B.
In data set [3] the target is T2, 5-HT2C receptor (Homo sapiens, UniProt P28335).
T2 construct: expressed in transfected cells; host or cells: HEK293
T2 sequence (P28335 33-458): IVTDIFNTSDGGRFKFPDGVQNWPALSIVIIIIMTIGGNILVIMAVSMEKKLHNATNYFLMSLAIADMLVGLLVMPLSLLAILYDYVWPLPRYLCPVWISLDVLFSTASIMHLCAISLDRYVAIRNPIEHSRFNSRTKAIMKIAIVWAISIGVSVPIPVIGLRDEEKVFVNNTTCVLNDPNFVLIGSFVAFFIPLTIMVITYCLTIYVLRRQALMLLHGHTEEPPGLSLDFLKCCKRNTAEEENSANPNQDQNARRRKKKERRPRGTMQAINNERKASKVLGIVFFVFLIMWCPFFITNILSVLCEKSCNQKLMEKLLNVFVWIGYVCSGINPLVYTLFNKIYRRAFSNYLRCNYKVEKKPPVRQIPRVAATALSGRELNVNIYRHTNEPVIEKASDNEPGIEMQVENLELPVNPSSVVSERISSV
The data set can be described thus: IP accumulation assay. The conditions noted are these: HEK293 cells expressing recombinant 5-HT2C receptors, [3H]inositol phosphates, 2 h at 37° C. The format is cell-based. On the procedure:
HEK293 cells expressing recombinant 5-HT2C receptors were added to sterile poly-D-lysine-coated 96-well microtiter plates (35,000 cells/well) and labeled with 0.6 µCi/well of [^3H]inositol in myoinositol-free DMEM for 18 h. Unincorporated [^3H]inositol was removed by aspiration and replaced with fresh myoinositol-free DMEM supplemented with LiCl (10 mM final) and pargyline (10 μM final). Serially diluted test compounds were then added and incubation was conducted for 2 h at 37° C. Incubations were then terminated by lysing cells with the addition of ice-cold 0.1 M formic acid followed by freezing at −80° C. After thawing, total [^3H]inositol phosphates were resolved from [^3H]inositol using AG1-X8 ion exchange resin (Bio-Rad) and [^3H]inositol phosphates were measured by scintillation counting using a Perkin Elmer TopCount® scintillation counter. All EC50 determinations were performed using 10 different concentrations and triplicate determinations were made at each test concentration.

Data set [4] deals with T3, 5-HT2A receptor (Homo sapiens, UniProt P28223). The data set can be described thus: IP accumulation assay. The format is cell-based. The settings on record: [3H]inositol phosphates, read-out: IP Accumulation EC50 (nM) 2A.
T3 sequence (P28223 whole entry): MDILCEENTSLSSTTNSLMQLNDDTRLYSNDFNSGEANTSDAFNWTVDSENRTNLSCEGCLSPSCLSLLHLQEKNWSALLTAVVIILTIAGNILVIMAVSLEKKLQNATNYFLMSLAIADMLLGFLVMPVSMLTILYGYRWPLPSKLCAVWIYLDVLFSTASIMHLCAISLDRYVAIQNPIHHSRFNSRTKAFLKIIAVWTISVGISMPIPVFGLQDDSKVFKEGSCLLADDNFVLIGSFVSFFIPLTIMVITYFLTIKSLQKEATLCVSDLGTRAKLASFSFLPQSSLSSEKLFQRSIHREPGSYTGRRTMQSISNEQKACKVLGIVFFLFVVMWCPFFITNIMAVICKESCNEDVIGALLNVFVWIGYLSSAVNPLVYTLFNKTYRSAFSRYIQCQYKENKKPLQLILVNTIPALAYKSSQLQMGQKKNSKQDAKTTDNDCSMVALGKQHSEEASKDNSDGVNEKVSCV
For data set [5] the following is noted: 10 mg BID, patients with type 2 diabetes, cited from earlier work.
For data set [6] the following is noted: cited from earlier work.
For data set [7] the following is noted: patients without diabetes, cited from earlier work.
The conditions of data set [8]: cited from earlier work. The source holds these as a separate data set.
In data set [9] the target is T1, 5-HT2B receptor. Put plainly: Radioligand binding assay with [125I]DOI. The conditions noted are these: competition with [125I]DOI, read-out: DOI Binding Ki (nM) 2B.
Data set [10] addresses T2, 5-HT2C receptor. Put plainly: Radioligand binding assay with [125I]DOI. The settings on record: competition with [125I]DOI, membranes of HEK293 cells expressing recombinant 5-HT2C receptors; read-out: DOI Binding Ki (nM) 2C. The procedure: For the compounds of Table A, the following procedure was used. HEK293 cells stably expressing recombinant 5-HT2C receptors were harvested, suspended in ice-cold phosphate buffered saline, pH 7.4 (PBS), and then centrifuged at 48,000 g for 20 min at 4° C. The resulting cell pellet was then re-suspended in wash buffer containing 20 mM HEPES, pH 7.4 and 0.1 mM EDTA, homogenized on ice using a Brinkman Polytron, and centrifuged (48,000 g for 20 min at 4° C.). The pellet was then resuspended in 20 mM HEPES, pH 7.4, homogenized on ice, and centrifuged (48,000 g for 20 min at 4° C.). Crude membrane pellets were stored at −80° C. until used for radioligand binding assays.
For the compounds of Table A, the following procedure was used. […] Experiments comprised addition of 95 μL of assay buffer (20 mM HEPES, pH 7.4, 10 mM MgCl2), 50 μL of membranes, 50 μL of radioligand stock, and 5 μL of test compound diluted in assay buffer to 96-well microtiter plates, which were then incubated for 1 h at room temperature. Assay incubations were terminated by rapid filtration through PerkinElmer F/C filtration plates under reduced pressure using a 96-well Packard filtration apparatus, followed by washing three times with ice cold assay buffer. Plates were then dried at 45° C. for a minimum of 2 h. Finally, 25 μL of BetaScint™ scintillation cocktail was added to each well and the plates were counted in a Packard TopCount® scintillation counter. In each competition study, test compounds were dosed at ten concentrations with triplicate determinations at each test concentration.

In data set [11] the target is T3, 5-HT2A receptor. Put plainly: Radioligand binding assay with [125I]DOI. The settings on record: competition with [125I]DOI, read-out: DOI Binding Ki (nM) 2A.
Setting [12] is: patients with type 2 diabetes, BELVIQ BID.
The mark [13] stands for this setting: patients without type 2 diabetes.
Where [14] appears, read: pivotal phase 3 program, treated for up to two years.

T1 sequence (P41595 whole entry): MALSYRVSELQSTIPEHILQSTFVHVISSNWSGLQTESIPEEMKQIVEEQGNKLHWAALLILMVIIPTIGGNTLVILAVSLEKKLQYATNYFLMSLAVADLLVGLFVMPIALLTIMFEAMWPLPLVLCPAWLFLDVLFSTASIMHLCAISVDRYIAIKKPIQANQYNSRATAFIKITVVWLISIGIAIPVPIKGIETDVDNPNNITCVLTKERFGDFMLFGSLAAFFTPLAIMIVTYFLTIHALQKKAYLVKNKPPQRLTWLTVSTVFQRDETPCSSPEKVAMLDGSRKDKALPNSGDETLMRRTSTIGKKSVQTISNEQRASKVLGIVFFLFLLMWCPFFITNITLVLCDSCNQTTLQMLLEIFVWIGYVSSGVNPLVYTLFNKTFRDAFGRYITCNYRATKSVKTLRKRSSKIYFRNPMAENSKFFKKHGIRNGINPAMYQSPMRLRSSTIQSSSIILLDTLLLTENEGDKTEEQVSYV

With `CCN[C@@H](C)Cc1cccc(C(F)(F)F)c1` [d-fenfluramine], the “share of patients with reported cardiac valve defects” value in data set [1] is “up to one third”.
As usually defined, the EC50 is the concentration at which the effect is half-maximal. As for `CC1(C)CC2CCNCc3ccc(F)c(c32)C12CC2` (stereo not shown) [Compound 119, 8′-fluoro-6′,6′-dimethyl-2′,3′,4′,4a′,5′,6′-hexahydro-1′H-spiro[cyclopropane-1,7′-naphtho[1,8-cd]azepine]], the values for the EC50 at 5-HT2B receptor [2], on 5-HT2C receptor [3] and on 5-HT2A receptor [4] were over 100000 nM, 391 nM and over 100000 nM, respectively.
In the case of `C[C@H]1CNCCc2ccc(Cl)cc21` [lorcaserin, (R)-8-chloro-1-methyl-2,3,4,5-tetrahydro-1H-3-benzazepine], the “reduction in HbA1c” value in data set [5] (placebo 0.4%) is on record as 0.9%. For the same molecule, the “reduction in fasting glucose” value in [5] (placebo 11.9%) is 27.4%. In [6] (setting [12]), the “patients who decreased the total daily dose of medications used for treatment of dyslipidemia” value is given as 5.5% and the “patients who increased use of medications used for treatment of dyslipidemia” value was 3.1%. In addition, in data set [6] (patients with type 2 diabetes, BELVIQ groups), the “decrease of mean daily doses of sulfonylureas and thiazolidinediones” value was 16-24%. For the same molecule, in [6] (patients with type 2 diabetes), the “patients who decreased total daily dose of antihypertensive medications” value is reported as 8.2% and the “patients who increased total daily dose of antihypertensive medications” value is 6.6%. In addition, in data set [6] (setting [13]), the “patients who decreased the total daily dose of medications used for treatment of dyslipidemia” value was 1.3%, the “patients who decreased total daily dose of antihypertensive medications” value is reported as 2.2%, the “patients who increased total daily dose of antihypertensive medications” value is 2.2% and the “patients who increased use of medications used for treatment of dyslipidemia” value is 2.6%. Moreover, the “change of insulin resistance (HOMA-IR)” value in data set [7] (one study, placebo −0.2) was −0.4. Further, the “change of fasting insulin” value in [7] (one study, placebo −1.3 μIU/mL) is −3.3 μIU/mL. Besides, in [7] (placebo +0.6 mg/dL), the “change of mean fasting glucose” value is -0.2 mg/dL. Also, the “share of excess body weight lost” value in [8] (first phase 3 trial, based on a normal BMI of 25) is given as “about one-third”. In data set [8] (phase 3 program), the “risk of cardiac valvulopathy” value is recorded as “did not increase the risk of cardiac valvulopathy”. In addition, in data set [8] (setting [14]), the “proportion of patients that achieved at least 5% weight loss” value was “About two-thirds” and the “proportion of patients that achieved at least 10% weight loss” value is reported as “over one-third”. The “average weight lost as share of their weight” value in data set [8] (pivotal phase 3 program) was “about 8%”. Moreover, in [8] (second phase 3 trial), the “average weight loss, top quartile of patients” value is 35 pounds and the “average weight loss, top quartile of patients, of body weight” value is reported as 16%.
Usually Ki stands for a dissociation constant, usually derived from enzyme kinetics or from competition with a known ligand. With `CC1(C)CCC2CCNCc3cccc1c32` (stereo not shown) [Compound 135, 7,7-dimethyl-1,2,3,4,4a,5,6,7-octahydronaphtho[1,8-cd]azepine], the figures for the inhibition constant (Ki) on 5-HT2B receptor [9], on 5-HT2C receptor [10] and on 5-HT2A receptor [11] were 395 nM, 69.6 nM and 458 nM, respectively.
Regarding `c1cc2c3c(c1)C1(CCC1)CCC3CCNC2` (stereo not shown) [Compound 131, 2′,3′,4′,4a′,5′,6′-hexahydro-1′H-spiro[cyclobutane-1,7′-naphtho[1,8-cd]azepine]], the values for the 50% effective concentration (EC50) on 5-HT2B receptor [2], on 5-HT2C receptor [3] and at 5-HT2A receptor [4] were over 100000 nM, 83.5 nM and over 100000 nM, respectively.
Regarding `Brc1ccc2c3c1CCCC3CCNC2` (stereo not shown) [Compound 106, 8-bromo-1,2,3,4,4a,5,6,7-octahydronaphtho[1,8-cd]azepine], the Ki on 5-HT2B receptor [9] is 125 nM; at 5-HT2C receptor [10] it was 105 nM; on 5-HT2A receptor [11], 244 nM.
For `CC1(C)CC2CCNCc3cccc(c32)C12CC2` (stereo not shown) [Compound 102, 6′,6′-dimethyl-2′,3′,4′,4a′,5′,6-hexahydro-1′H-spiro[cyclopropane-1,7′-naphtho[1,8-cd]azepine]], in that order: 255 nM, 10.3 nM and 236 nM.
For `CC1(C)c2cccc3c2C(CCNC3)CC12CC2` (stereo not shown) [Compound 121, 7,7′-dimethyl-2′,3′,4′,4a′,5′,7′-hexahydro-1′H-spiro[cyclopropane-1,6′-naphtho[1,8-cd]azepine]], the results for the EC50 on 5-HT2B receptor [2], at 5-HT2C receptor [3] and on 5-HT2A receptor [4] were over 100000 nM, 222 nM and over 100000 nM, respectively. In addition, the results for the inhibitory constant (Ki) on 5-HT2B receptor [9], at 5-HT2C receptor [10] and on 5-HT2A receptor [11] were 634 nM, 27.6 nM and 423 nM, respectively.
Turning to `c1cc2c3c(c1)C1(CCC3CCNC2)CC1` (stereo not shown) [Compound 128, 2′,3′,4′,4a′,5′,6′-hexahydro-1′H-spiro[cyclopropane-1,7′-naphtho[1,8-cd]azepine]], the EC50 is 284 nM on 5-HT2B receptor [2], 108 nM on 5-HT2C receptor [3] and over 100000 nM at 5-HT2A receptor [4].
Consider `CCc1ccc2c3c1C1(CC1)C1(CC1)CC3CCNC2` (stereo not shown) [Compound 101, 8′-ethyl-2′,3′,4′,4a′,5′-pentahydro-1′H-dispiro[cyclopropane-1,6′-cyclopropane-7′,1″- naphtho[1,8-cd]azepine]], for which the 50% effective concentration (EC50) was over 100000 nM on 5-HT2B receptor [2], 2040 nM on 5-HT2C receptor [3] and over 100000 nM at 5-HT2A receptor [4].
On to `c1cc2c3c(c1)C1(CC1)C1(CC1)CC3CCNC2` (stereo not shown) [Compound 130, 2′,3′,4′,4a′,5′-pentahydro-1′H-dispiro[cyclopropane-1,6′-cyclopropane-7′,1″- naphtho[1,8-cd]azepine]], for which the EC50 on 5-HT2B receptor [2] is 967 nM; on 5-HT2C receptor [3] it was 5.21 nM; at 5-HT2A receptor [4] it was 465 nM. Besides, the figures for the Ki on 5-HT2B receptor [9], at 5-HT2C receptor [10] and on 5-HT2A receptor [11] were 75.7 nM, 1.96 nM and 34.4 nM, respectively.
